Experiments:
baboons [1] = experiment: Effect of locally infused PPACK during local sampling; assay type: in vivo, baboon; conditions: PPACK 0.5 mg/ml infused locally at 20 μl/min
Description: A novel local sampling method was used to assess the local production of thrombogenic mediators by sampling blood that superfused propagating experimental thrombi. […] All blood samples were collected into 1/10th volume 3.8% citrate anticoagulant. Systemic samples (1 ml each) were collected before initiation of thrombosis as well as 30 and 60 min into each study. A total of 6 local blood samples were drawn from the peripheral blood IBL at a rate of 100 μl/min over 10 min intervals out of a 0.64 mm port which was located 10 mm distal to the growing thrombus (FIG. 1A). […] Infusion and sampling were regulated by syringe pumps (Harvard Apparatus). Local sampling was performed only with the 4 mm i.d. devices in this study.

baboons (Papio anubis) = experiment: Vascular graft occlusion studies, collagen coated 2 mm i.d. grafts, high arterial shear; assay type: in vivo, baboon (Papio anubis)
Description: Thrombus formation was initiated within the baboon AV shunt by interposing a thrombogenic segment of prosthetic vascular graft (ePTFE, WL Gore & Co., Flagstaff, Ariz.), as previously described (Hanson et al. (1993) J. Clin. Invest. 92:2003-2012). To consistently trigger platelet-dependent thrombus formation, the clinical graft segments were coated with immobilized collagen. Twenty mm long grafts having internal diameters (i.d.) of either 2 or 4 mm were filled with equine type I collagen (1 mg/ml; Nycomed Arzenmittel, Munich, Germany) for 15 min, and then dried overnight under sterile airflow. This method produced a uniform collagen coating within the graft lumen as determined by scanning electron microscopy (FIGS. 1B and 1C). The thrombogenic collagen-coated grafts were then incorporated between segments of silicon rubber tubing, and deployed into the AV shunts (FIG. 1A). The grafts were exposed to blood for up to 60 min. During each experiment, the blood flow rate through the graft was restricted to 100 ml/min by clamping the proximal silicone rubber shunt segment, thereby producing a mean wall shear rate (MWSR) in the 4 mm grafts of 265 s^−1, while in the 2 mm grafts the initial MWSR was 2120 s^−1. Flow rates were continuously monitored using an ultrasonic flow meter (Transonics Systems, Ithaca, N.Y.). […] Baseline blood flow was restored through the permanent shunt after each experiment. In the 2 mm diameter grafts blood flow rates progressively declined due to thrombus formation. The grafts were removed from the AV shunts when the flow rate fell from 100 ml/min to below 20 ml/min, signaling imminent occlusion. The time from initiation of blood flow to graft removal (<20 ml/min blood flow) was taken as the occlusion time.
Occlusion studies were performed using 10 mm long 2 mm i.d. collagen coated devices which produced high arterial shear rates (2120 s^−1 at 100 ml/min clamped blood flow). Accumulation of labeled platelets onto 2 mm thrombogenic grafts were measured in 3-min intervals using a gamma scintillation camera. Flow was maintained at 100 ml/min by proximal clamping for as long as possible, and then allowed to decrease as the propagating thrombus began to occlude the device. A final blood flow rate of 20 ml/min was used as a cutoff for occlusion, since a fully occlusive thrombi and lack of blood flow through the device could lead to occlusion of the shunt and a significant loss of blood for the animals.
Since aspirin is a less antihemostatic agent than heparin, and it is often included in the standard treatment of arterial-type platelet-dependent thrombosis, ASA was used in the current studies with the occlusion-prone 2 mm i.d. grafts as a long-acting positive control. ASA (32 mg/kg) was administered orally 2-4 h before each thrombosis experiment, as described previously (Hanson et al. (1985) J. Clin. Invest. 75:1591-1599). Four weeks were allowed for washout of each aXIMab and ASA before performing new experiments in the same animal.

baboons [2] = experiment: Standard template skin bleeding time test (Surgicutt); assay type: in vivo, baboon
Description: The effects of FXI inhibition and aspirin on primary hemostasis in baboons were assessed using the standard template skin bleeding time test (Surgicutt®, International Technidyne Corp). […] All bleeding time measurements were performed by the same expert technician. For indirect assessment of hemostasis, aPTT and PT measurements were also performed.

baboons [3] = experiment: Observation for adverse reactions and bleeding events; assay type: in vivo, baboon; conditions: one week follow-up periods of observation

NC(N)=NCCC[C@H](NC(=O)[C@@H]1CCCN1C(=O)[C@H](N)Cc1ccccc1)C(=O)CCl [PPACK, Phe-Pro-Arg-chloromethylketone]
systemic prothrombin times (PT) or activated partial thromboplastin times (aPTT) (baboons [1]): did not affect

CC(=O)Oc1ccccc1C(=O)O [ASA, acetylsalicylic acid, reference compound]
platelet deposition (baboons (Papio anubis); 2 mm i.d. grafts): reduced platelet deposition | Number occluded (baboons (Papio anubis); 2 mm i.d. grafts, 60 min): 4/6 | Embolic events per experiment (baboons (Papio anubis); 2 mm i.d. grafts, mean ± SEM): 1.5 ± 0.6 | Fibrin deposition (baboons (Papio anubis); 2 mm i.d. grafts, mean ± SEM, control 0.30 ± 0.04): 0.23 ± 0.04 mg | grafts remained patent (baboons (Papio anubis); 2 mm i.d. grafts, over 60 min): 2 | time to graft occlusion prolonged by (average) (baboons (Papio anubis); in 4 grafts, ASA 32 mg/kg orally): 18 min | effect on bleeding time / hemostasis (baboons [2]; FIG. 6, compared with no treatment controls): prolonged the bleeding time | standard template bleeding time (baboons [2]; vehicle-treated controls 3.4±0.2 min): 6.4 ± 0.7 min | adverse bleeding events (baboons [3]): No re-bleeding phenomena, petechiae, hematomas or other adverse bleeding events

From patent publication US10577428B2, “Anti-factor XI monoclonal antibodies and methods of use thereof” (Oregon Health & Science University, priority 2007, dated 2020)
